Assay results as given in patent US10100083B2, “Leukemia stem cell targeting ligands and methods of use” (The Regents of the University of California, priority 2011, dated 2018).
Positions of bridges follow the written chain, without caps; N, C: chain ends. No end group written: not given here.

Tests used:
[1] = Balb/c mice, follow-up for up to 10 days
in vivo = settings: Balb/c, mouse
CLL1 [2] = assay: Binding of phage displaying the peptide to A549 cells expressing CLL1-RFP (anti-M13 antibody-FITC); settings: anti-M13 monoclonal antibody-FITC
Protocol: (§1) FIGS. 1A-D illustrate identification of peptides that target CLL1. A. Panning strategy to identify CLL1-targeting peptides. Before each round of panning, the C7C phage peptide display library was subtracted with various cells to remove phage that could bind to those confounding cell types. B. Binding of phage to cells expressing CLL1. A549 cells were transfected with CLL1-RFP (a) or RFP (b, control), incubated with phage expressing the […] (SEQ ID NO: 17)peptide, and probed with anti-M13 phage antibody conjugated with FITC. Binding of phage to A549 cells expressing CLL1-RFP (c), but not to A549 cells expressing RFP (d) was observed. C. Binding of the […] (SEQ ID NO: 17)peptide to CLL1. Biotinylated […] (SEQ ID NO: 17) peptide was synthesized and used to probe PBMC, A549 transfected with vector alone, and A549 cells expressing CLL1. […] Upper panel: cells were probed with streptavidin (SA)-FITC. Lower panels: cells were probed with CLL1-targeting peptide and SA-FITC. D. Binding specificity of the […] (SEQ ID NO: 17)peptide. Cells of various origins were incubated with the biotinylated CLL1-targeting peptide or a bladder cancer-specific peptide, named PLZ4 as a negative control, and probed with SA-PE.
(§2) After panning, a total of 36 phage clones were sequenced. […] Expression of CLL1-RFP or RFP could be visualized by the appearance of red fluorescence. […]
Target sequence in this assay (Q5QGZ9 65-265 limits assumed): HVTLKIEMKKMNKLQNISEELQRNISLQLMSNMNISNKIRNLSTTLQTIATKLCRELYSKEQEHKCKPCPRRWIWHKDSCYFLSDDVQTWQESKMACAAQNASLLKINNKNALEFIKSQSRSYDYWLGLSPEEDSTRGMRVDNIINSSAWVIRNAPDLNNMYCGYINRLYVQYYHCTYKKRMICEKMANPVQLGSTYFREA

[3] = system: A549 cells expressing RFP; assay: Binding of phage displaying the peptide to control A549 cells expressing RFP
Protocol: as §1, §2

CLL1 [4] = assay: Flow cytometry binding of biotinylated peptide to cells expressing CLL1
Protocol: (§3) One peptide, CLL1-L1, with the sequence of […] (SEQ ID NO: 17) was synthesized for further analysis. To determine the binding specificity, cell lines purchased from the American Type Culture Collection (ATCC), such as PC3N (Prostate), HepG2 (Liver), Skov-3 (Ovarian), 5637 (Bladder), HCT-116 (Colon), RPMI8226 (Myeloma), A549 (Lung), K562 (Leukemia), A549 and K562 cells, both expressing CLL1, were incubated with CLL1-L1 conjugated to biotin and probed with streptavidin-phycoerythrin (PE) (excitation 480 nm, emission 578 nm) (FIG. 1D). A bladder cancer-specific ligand, PLZ4, conjugated to biotin was used as the negative control.
After panning, a total of 36 phage clones were sequenced. After alignment, two consensus sequences were identified: CXLR(S/T)AAVC (SEQ ID NO: 34) and CXLRSSGPC (SEQ ID NO: 24) (Table 1), in which “X” represents several amino acids that can be replaceable. Serine (S) and threonine (T) belong to the same hydrophilic class of amino acids with only one methyl group difference. Of these two major sequences, one common motif exists: “LR(S/T)”. To confirm that these ligands indeed bind to CLL1, A549 cells were transfected with a CCL1-RFP expression vector (FIG. 1B panel a) or RFP (FIG. 1B panel b, the control). Expression of CLL1-RFP or RFP could be visualized by the appearance of red fluorescence. For subsequent in depth characterization, we selected the peptide […] […]
Target sequence in this assay (Q5QGZ9 44-265 limits assumed): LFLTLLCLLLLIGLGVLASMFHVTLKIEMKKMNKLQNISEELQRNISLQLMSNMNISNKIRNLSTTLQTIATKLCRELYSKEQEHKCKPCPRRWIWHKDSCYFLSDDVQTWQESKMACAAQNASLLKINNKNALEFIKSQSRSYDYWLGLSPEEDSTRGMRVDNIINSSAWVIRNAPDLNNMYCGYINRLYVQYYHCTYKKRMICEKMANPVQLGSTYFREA

[5] = system: PBMC, parental A549, K562 or other cell lines; assay: Flow cytometry binding of biotinylated peptide to PBMC, parental and other cell lines (binding specificity)
Protocol: as §3
After panning, a total of 36 phage clones were sequenced. After alignment, two consensus sequences were identified: CXLR(S/T)AAVC (SEQ ID NO: 34) and CXLRSSGPC (SEQ ID NO: 24) (Table 1), in which “X” represents several amino acids that can be replaceable. Serine (S) and threonine (T) belong to the same hydrophilic class of amino acids with only one methyl group difference. Of these two major sequences, one common motif exists: “LR(S/T)”. To confirm that these ligands indeed bind to CLL1, A549 cells were transfected with a CCL1-RFP expression vector (FIG. 1B panel a) or RFP (FIG. 1B panel b, the control). Expression of CLL1-RFP or RFP could be visualized by the appearance of red fluorescence. For subsequent in depth characterization, we selected the peptide […] (SEQ ID NO: 17) instead of […] (SEQ ID NO: 23) because aspartic acid (D) is more hydrophilic than proline (P), which makes the peptide more water soluble and easier to synthesize and manipulate. A549 cells expressing CCL1-RFP or RFP alone were incubated with phage displaying the […] (SEQ ID NO: 17) peptide, and probed with anti-M13 monoclonal antibody-FITC conjugate. […] This peptide is named CLL1-L1 and was used for all subsequent experiments. Flow cytometry studies were also performed to determine cell binding. CLL1-L1 was conjugated to biotin through the polyethylene glycol (PEG) linker. Cells were incubated with biotinylated CLL1-L1 and probed with streptavidin-PE. […]

[6] = streptavidin-PE, flow cytometry (FIG. 1C)

Molecule	Weight changes [1]	MTD (in vivo)	Phage detected on cell surface (CLL1 [2])	Phage detected on cell surface [3]	Binding to A549 and K562 cells that expressed recombinant CLL1 (CLL1 [4]; SA-PE (FIG. 1D))	Binding to A549 cells expressing CLL1 (CLL1 [4]; streptavidin probe, flow cytometry (FIG. 1C))	Binding to parental A549, K562 or other cell lines ([5]; SA-PE (FIG. 1D))	Binding to A549 control cells [5, 6]	Binding to PBMC [5, 6]
COc1cccc2c1C(=O)c1c(O)c3c(c(O)c1C2=O)C[C@@](O)(C(C)=O)C[C@@H]3O[C@H]1C[C@H](N)[C@H](O)[C@H](C)O1 [free DNR, daunorubicin]	no significant weight changes	10 mg/kg							
CDLRSAAVC (disulfide 1-9 (inferred)) [CLL1-L1, CLL1-targeting peptide from C7C phage display library, cyclized via the two cysteines]			detected on the surface	not on cells expressing RFP	bound	significant binding	not	No significant binding	No significant binding
